This passage reports drug sensitivity score results from the supplement of paper PMC11616607.

The first test concerns Kuramochi. Put plainly: drug sensitivity score (DSS) from 5-point dose-response viability curve (DSS (area-under-curve based score)); higher = more sensitive (stronger growth inhibition or killing); extreme values may be limits of the assay. As to conditions: exposure time: 72 h; concentration range: 5 concentrations over 10,000-fold range. The method, boiled down:
(§1)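 Ovarian cancer and normal ovarian cell lines were tested in 384-well plates. Drugs were acoustically dispensed (Echo 550) in DMSO or water at five concentrations spanning a 10,000-fold range, then 1,500 cells per well were added and incubated 3 days at 37°C, 5% CO2. Viability was read by CellTiter-Glo luminescence on a PHERAstar FS. Drug sensitivity score was derived per cell line and drug with Breeze software; higher means more sensitive, zero means no response.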
Consider `CC(C)(C)C[C@@H]1N[C@@H](C(=O)N[C@H]2CC[C@H](O)CC2)[C@H](c2cccc(Cl)c2F)[C@]12C(=O)Nc1cc(Cl)ccc12`, for which the drug sensitivity score worked out at 1.5.

On to `CC(C)Oc1ccc(C(=O)N[C@H](CNC(=O)CN(C)C)Cc2ccc(-c3cn4cccc([C@H](C)O)c4n3)cc2)cc1Cl`, for which the drug sensitivity score turned out to be 9.

In the case of `CC[C@@H]1[C@H](F)C(=O)N[C@@H]1COc1nccc2cc(C(N)=O)c(OC)cc12`, the drug sensitivity score came to 1.8.

In the case of `CCc1cncnc1N1CCN(Cc2nc3ccc(C(F)(F)F)cc3[nH]2)CC1`, the drug sensitivity score stood at 1.1.

Regarding `CCn1c(-c2nonc2N)nc2cnc(Oc3cccc(NC(=O)c4ccc(OCCN5CCOCC5)cc4)c3)cc21`, the drug sensitivity score came out at 2.1.

Turning to `CN(C)CC#Cc1ccc(OCCCc2sc(N3CCc4cccc(C(=O)Nc5nc6ccccc6s5)c4C3)nc2C(=O)O)c(F)c1`, the drug sensitivity score amounted to 1.6.

`CN(c1ncccc1CNc1nc(Nc2ccc3c(c2)CC(=O)N3)ncc1C(F)(F)F)S(C)(=O)=O` had a drug sensitivity score of 5.5.

Regarding `CNC(=O)c1ccc(C)c(-n2c(C)cc(OCc3ccc(F)cc3F)c(Br)c2=O)c1`, the drug sensitivity score was 0.7.

Compound `CNS(=O)(=O)Nc1nccc(Cc2c(C)c3ccc(Oc4ncccn4)cc3oc2=O)c1F` displayed a drug sensitivity score of 0.

For `CNc1ncc2cc(-c3cc(NC(=O)NCCC(C)(C)C)c(F)cc3C)c(C)nc2n1`, the drug sensitivity score is 8.7.

The compound `CO[C@@H](C)Cn1c(=O)n(C)c2cnc3ccc(-c4cncc(C(C)(C)O)c4)cc3c21` displayed a drug sensitivity score of 8.3.

`COc1ccc(Cn2ccc3ccc(C(=O)NO)cc32)cc1` displayed a drug sensitivity score of 1.2.

In turn, `C[C@@H](Oc1ccc2[nH]nc(/C=C/c3cnn(CCO)c3)c2c1)c1c(Cl)cncc1Cl` displayed a drug sensitivity score of 1.8.

In turn, `C[C@@H]1CN(CC(=O)Nc2ccc3c(c2)Cc2cccc(-c4cc(=O)cc(N5CCOCC5)o4)c2S3)C[C@H](C)O1` displayed a drug sensitivity score of 0.5.

In turn, `C[C@H]1C[C@@H](n2c(Nc3ccc(OC(F)(F)F)cc3)nc3cc(CCC(=O)O)ccc32)CC(C)(C)C1` registered a drug sensitivity score of 0.

`Cc1c(-c2c(-c3ccc(F)o3)sc3ncnc(O[C@H](Cc4ccccc4OCc4ccnn4CC(F)(F)F)C(=O)O)c23)ccc(OCCN2CCN(C)CC2)c1Cl`: the drug sensitivity score is 0.

For the compound `Cc1c(Cn2c(C)nc3c(C(=O)O)cc(N4CCOCC4)cc32)cccc1C(F)(F)F`, the drug sensitivity score is 3.7.

With `Cc1ccc(C(=O)N(CCCN)[C@@H](c2oc3cc(Cl)ccc3c(=O)c2Cc2ccccc2)C(C)C)cc1`, the drug sensitivity score amounted to 2.9.

As to `Cc1cccc(CC(=O)N2CCc3c2ccc(-c2cn(C)c4ncnc(N)c24)c3F)n1`, the drug sensitivity score turned out to be 0.2.

`Cc1nc(Nc2n[nH]c3c2CN(C(=O)N[C@H](CN(C)C)c2ccccc2)C3(C)C)c2sccc2n1` gave a drug sensitivity score of 12.2.

In turn, `Cc1ncc(Cl)cc1NCc1ccc(C(=O)N[C@@H](CC2CCCC2)C(=O)NC2CC2)s1` returned a drug sensitivity score of 0.4.

In turn, `Cn1cc(-c2ccc(F)c(C(F)(F)F)c2)nc1C1CCN(c2ncnc3[nH]ncc23)CC1` had a drug sensitivity score of 0.

As for `Cn1cc(C2=Nc3cc(NC(=O)C(N)C4CCCCC4)cc4c3C2=CNNC4=O)cn1` (stereo not drawn), the drug sensitivity score was 7.3.

As for `N#Cc1ccc(COC[C@H]2O[C@@H](n3c(NCc4ccc(Cl)c(Cl)c4)nc4c(N)ncnc43)[C@H](O)[C@@H]2O)cc1`, the drug sensitivity score was found to be 1.4.

Consider `NCC(=O)Nc1ccc(-n2nc(C(F)(F)F)cc2-c2ccc3c(ccc4ccccc43)c2)cc1`, for which the drug sensitivity score was found to be 1.4.

For the compound `NC[C@@](O)(c1ccc(Cl)cc1)c1ccc(-c2cn[nH]c2)cc1`, the drug sensitivity score is 0.1.

As to `Nc1nccc(-c2c(-c3ccc(F)cc3)ncn2C2CCCCC2)n1`, the drug sensitivity score was 0.1.

On to `Nc1ncnc2c1c(COc1cccc(Cl)c1)nn2C1CCOCC1`, for which the drug sensitivity score came out at 0.3.

For the compound `O=C(NOC[C@H](O)CO)c1ccc(F)c(F)c1Nc1ccc(I)cc1F`, the drug sensitivity score amounted to 5.2.

In the case of `O=C(Nc1ccc2[nH]nc(-c3ccncc3)c2c1)[C@@H]1CCN(CC(=O)N2CCN(c3ccc(-c4ncccn4)cc3)CC2)C1`, the drug sensitivity score is 13.2.

Turning to `O=C(O)c1ccc(-c2c[nH]c3ncc(-c4ccccc4)cc23)cc1C1CCCC1`, the drug sensitivity score is 0.

The compound `O=C(O)c1ccc(CN2CCC(CN[C@@H]3C[C@H]3c3ccccc3)CC2)cc1` had a drug sensitivity score of 0.

The subject of a further test is OV90. Described as above. As to conditions: exposure time: 72 h; concentration range: 5 concentrations over 10,000-fold range. The method, boiled down:
as §1
Turning to `CC(C)(C)C[C@@H]1N[C@@H](C(=O)N[C@H]2CC[C@H](O)CC2)[C@H](c2cccc(Cl)c2F)[C@]12C(=O)Nc1cc(Cl)ccc12`, the drug sensitivity score came out at 2.1.

Consider `CC(C)Oc1ccc(C(=O)N[C@H](CNC(=O)CN(C)C)Cc2ccc(-c3cn4cccc([C@H](C)O)c4n3)cc2)cc1Cl`, for which the drug sensitivity score worked out at 12.

Compound `CC[C@@H]1[C@H](F)C(=O)N[C@@H]1COc1nccc2cc(C(N)=O)c(OC)cc12` returned a drug sensitivity score of 0.6.

For `CCc1cncnc1N1CCN(Cc2nc3ccc(C(F)(F)F)cc3[nH]2)CC1`, the drug sensitivity score is 2.9.

For `CCn1c(-c2nonc2N)nc2cnc(Oc3cccc(NC(=O)c4ccc(OCCN5CCOCC5)cc4)c3)cc21`, the drug sensitivity score was 5.1.

`CN(C)CC#Cc1ccc(OCCCc2sc(N3CCc4cccc(C(=O)Nc5nc6ccccc6s5)c4C3)nc2C(=O)O)c(F)c1` had a drug sensitivity score of 19.2.

Turning to `CN(c1ncccc1CNc1nc(Nc2ccc3c(c2)CC(=O)N3)ncc1C(F)(F)F)S(C)(=O)=O`, the drug sensitivity score came out at 5.9.

`CNC(=O)c1ccc(C)c(-n2c(C)cc(OCc3ccc(F)cc3F)c(Br)c2=O)c1` came in with a drug sensitivity score of 0.

In turn, `CNS(=O)(=O)Nc1nccc(Cc2c(C)c3ccc(Oc4ncccn4)cc3oc2=O)c1F` came in with a drug sensitivity score of 6.3.

For the compound `CNc1ncc2cc(-c3cc(NC(=O)NCCC(C)(C)C)c(F)cc3C)c(C)nc2n1`, the drug sensitivity score stood at 24.4.

As to `CO[C@@H](C)Cn1c(=O)n(C)c2cnc3ccc(-c4cncc(C(C)(C)O)c4)cc3c21`, the drug sensitivity score is 11.9.

The compound `COc1ccc(Cn2ccc3ccc(C(=O)NO)cc32)cc1` yielded a drug sensitivity score of 1.8.

`C[C@@H](Oc1ccc2[nH]nc(/C=C/c3cnn(CCO)c3)c2c1)c1c(Cl)cncc1Cl`: the drug sensitivity score came to 5.3.

Take `C[C@@H]1CN(CC(=O)Nc2ccc3c(c2)Cc2cccc(-c4cc(=O)cc(N5CCOCC5)o4)c2S3)C[C@H](C)O1`: the drug sensitivity score is 2.7.

`C[C@H]1C[C@@H](n2c(Nc3ccc(OC(F)(F)F)cc3)nc3cc(CCC(=O)O)ccc32)CC(C)(C)C1`: the drug sensitivity score is 0.

Consider `Cc1c(-c2c(-c3ccc(F)o3)sc3ncnc(O[C@H](Cc4ccccc4OCc4ccnn4CC(F)(F)F)C(=O)O)c23)ccc(OCCN2CCN(C)CC2)c1Cl`, for which the drug sensitivity score was found to be 0.1.
